In PMC11975549, “Development of Potent Type V MAPK Inhibitors: Design, Synthesis, and Biological Evaluation of Benzothiazole Derivatives Targeting p38α MAPK in Breast Cancer Cells” (Archiv Der Pharmazie, 2025):

Key:
MCF7 cells = assay: MTT antiproliferative assay, MCF7; type: cell-based, human; settings: for IC50: MTT, 24 h incubation; for Selectivity MCF7: Selectivity index = L929 IC50 / MCF7 IC50 (24 h)
Procedure: (§1) Cell culture experiments were performed to assess the antiproliferative efficacy of the synthesized benzothiazole compounds on the MCF7 and MDA‐MB‐231 cell lines. The anticancer activity of the compounds were compared with the L929 healthy cell line as a control. Doxorubicin and cisplatin, the anticancer agents, were employed as positive controls.
(§2) Human epithelial breast adenocarcinoma (MDA‐MB‐231) (ATCC® HTB‐26™), human epithelial breast adenocarcinoma (MCF7) (ATCC® HTB‐22™), and healthy mouse fibroblast (L929) (ATCC® CRL‐10317™) cells were obtained commercially from ATCC.
(§3) MDA‐MB‐231, MCF7, and L929 cells were seeded in 25 cm² flasks. DMEM medium containing 10% FBS, 1% Penicillin‐Streptomycin, L‐Glutamine, and NaHCO₃ was used as the cell culture medium. The cells were incubated and propagated at 37°C in an environment containing 5% CO₂ and 95% humidity. When the cells reached 80%–90% confluency, they were passaged to different media. During passaging, DMEM was first withdrawn, and the cells were washed with PBS to remove FBS from the medium. Then, Trypsin‐EDTA solution was added to the flask to detach the cells, and the flask was kept in a CO₂ incubator for approximately 1 min. To stop the activity of Trypsin‐EDTA medium containing FBS was added to the flask. The cells were collected into a Falcon tube and centrifuged at 800 rpm for 5 min at room temperature. The supernatant was discarded, and the cell pellet was resuspended in the medium and seeded on cell culture plates according to the experimental protocol.
(§4) A total of 2 mg of each compound was dissolved in an appropriate amount of dimethyl sulfoxide (DMSO) to prepare 10 mM stock solutions. These stock solutions were then diluted to create 100 μM intermediate stocks and stored at −80°C. Commercially purchased cisplatin and doxorubicin HCl (Sigma, St. Louis, MO) were dissolved in DMSO following the manufacturer's protocol to create 20 mM stock solutions. These standard drug molecules were diluted from the stock solution, divided into 100 μM aliquots, and stored at –80°C until use.
(§5) MTT analysis was performed to evaluate the in vitro cytotoxicity of the synthesized compounds against different cancer cell lines. Cells used in the cytotoxicity experiments were cultured in DMEM medium supplemented with 10% FBS. Cells suspended in the medium (2 × 10⁴ cells/mL) were seeded into 96‐well culture plates and incubated at 37°C in a 5% CO₂ incubator. After 12 h, compounds were added at different doses (2 µL) to cells (2 × 10⁴) in the 96‐well plates and incubated at 37°C for 24 h.
(§6) The incubated cells were then treated with 20 µL of MTT solution and incubated at 37°C for 4 h. The supernatant was carefully removed from each well, and 100 µL of DMSO was added to each well to dissolve the formazan crystals formed by the cellular reduction of MTT. The absorbance was measured at 570 nm using an ELISA reader. […] At the end of the experiment, the device calculated the IC50 value for each well, and the average values were recorded. Each experiment was performed in at least three replicates.

MDA‐MB‐231 cells = assay: MTT antiproliferative assay, MDA-MB-231; type: cell-based, human; settings: for IC50: MTT, 24 h incubation; for Selectivity MDA‐MB‐231: Selectivity index = L929 IC50 / MDA‐MB‐231 IC50 (24 h)
Procedure: as §1, §2, §3, §4, §5, §6

L929 cells = assay: MTT cytotoxicity assay, L929 healthy cells; type: cell-based; settings: healthy mouse fibroblast
Procedure: as §1, §2, §3, §4, §5, §6

p38 MAPKα = assay: p38 MAPK alpha ELISA, total level in treated MCF7 cells normalised to total protein (BCA); type: cell-based, human; settings: MCF7 cells exposed to compound
Text: To account for variations in protein quantities among the cells. The total protein concentrations in cells subjected to the drugs were quantified. The p38 MAPKα levels were adjusted by dividing by the protein levels, yielding results represented as ng/μg protein (Table 3).
A bicinchoninic acid (BCA) protein assay kit (catalog no. 23227) was obtained from Thermo‐Fisher Scientific (IL, USA) and used to detect total protein by the BCA assay. In this assay, the reaction between BCA, Cu²⁺ ions, and Cu⁺ ions form a purple complex in alkaline conditions. The absorbance of this complex was measured at 562 nm, and the results were expressed in mg/mL.
The p38 MAPK alpha ELISA Kit (ab221012; Abcam, Cambridge, MA) was used to measure the levels of […] in cell lysates according to the manufacturer's instructions. The SimpleStep Enzyme‐Linked Immunosorbent Assay (ELISA) kit was designed to assess total p38 MAPKα protein semi‐quantitatively. The SimpleStep ELISA uses a reporter‐conjugated detection antibody, and an affinity‐tag labeled capture antibody to immunocapture the sample analyte in solution. An anti‐tag antibody coating the well immobilizes the entire complex (capture antibody, analyte, and detection antibody).
Samples or controls were added to the wells, followed by the Antibody Cocktail to complete the test. After incubation, the wells were washed to remove unbound material. […] The levels of MAPK were normalized to total protein content.

SMILES | IC50 (MCF7 cells; Homo sapiens, MCF7) [µM] | IC50 (MDA‐MB‐231 cells; Homo sapiens, MDA-MB-231) [µM] | IC50 (MCF7 cells) [µM] | IC50 (MDA‐MB‐231 cells) [µM] | Selectivity MCF7 (MCF7 cells) | Selectivity MDA‐MB‐231 (MDA‐MB‐231 cells) | IC50 (L929 cells; L929, 24 h incubation) [µM] | Total p38α MAPK levels (p38 MAPKα) [ng/μg protein] | IC50 (L929 cells; 24 h incubation) [µM]
O=C(Nc1nc2ccccc2s1)c1ccc(C(F)(F)F)cc1 [Compound 6, N‐(Benzo[d]thiazol‐2‐yl)‐4‐(trifluoromethyl) benzamide] |  |  | 13.5 ± 0.37 | 10.9 ± 0.28 | 1.772 | 2.197 |  |  | 23.9 ± 0.32
COc1ccc(OC)c(CC(=O)Nc2nc3ccccc3s2)c1 [Compound 20, N‐(Benzo[d]thiazol‐2‐yl)‐2‐(2,5‐dimethoxyphenyl) acetamide] |  |  | 14.7 ± 0.15 | 16.07 ± 0.12 | 5.977 | 5.464 |  |  | 87.8 ± 1.29
O=C(Cc1ccc(F)cc1)Nc1nc2ccccc2s1 [Compound 22, N‐(Benzo[d]thiazol‐2‐yl)‐2‐(4‐fluorophenyl) acetamide] |  |  | 5.05 ± 0.01 | 3.8 ± 0.28 | 41.697 | 55.413 |  | 3.952 ± 0.311 | 210.6 ± 1.67
N.N.[Cl][Pt][Cl] [Cisplatin, reference compound] |  |  | 7.03 ± 0.04 | 30.1 ± 1.39 | 5.118 | 1.195 |  |  | 36 ± 2.01
O=C(Cc1cccs1)Nc1nc2ccccc2s1 [Compound 25, N‐(Benzo[d]thiazol‐2‐yl)‐2‐(thiophen‐2‐yl) acetamide] |  |  | 13.21 ± 0.03 | 14.4 ± 0.18 | 10.189 | 9.360 |  |  | 135 ± 1.83
COc1cccc(CC(=O)NCc2nc3ccccc3s2)c1 [Compound 26, N‐(Benzo[d]thiazol‐2‐ylmethyl)‐2‐(3‐methoxyphenyl) acetamide] |  |  | 13.5 ± 0.35 | 15.8 ± 0.52 | 2.047 | 1.753 |  |  | 27.7 ± 0.78
COc1cccc2c1C(=O)c1c(O)c3c(c(O)c1C2=O)C[C@@](O)(C(=O)CO)C[C@@H]3O[C@H]1C[C@H](N)[C@H](O)[C@H](C)O1 [Doxorubicin, reference compound] | 5.8 ± 0.15 | 9.27 ± 0.21 |  |  | 4.131 | 2.584 | 24 ± 1.07 |  | 
COc1ccc(CC(=O)Nc2nc3ccccc3s2)cc1 [Compound 24, N‐(Benzo[d]thiazol‐2‐yl)‐2‐(4‐methoxyphenyl) acetamide] |  |  | 12.7 ± 0.18 | 12.9 ± 0.19 | 6.440 | 6.306 |  |  | 81.5 ± 1.07
O=C(Nc1nc2ccccc2s1)c1cccs1 [Compound 3, N‐(Benzo[d]thiazol‐2‐yl) thiophene‐2‐carboxamide] | 16 ± 0.46 | 15 ± 0.57 |  |  | 2.209 | 2.345 | 35.2 ± 0.95 | 0.43 ± 0.005 | 
O=C(Nc1nc2ccccc2s1)c1ccco1 [Compound 4, N‐(Benzo[d]thiazol‐2‐yl) furan‐2‐carboxamide] | 11.08 ± 0.08 | 19.9 ± 0.36 |  |  | 2.349 | 1.305 | 26.03 ± 0.13 | 8.529 ± 0.9 | 
O=C(Nc1nc2ccccc2s1)c1ccccc1 [Compound 7, N‐(Benzo[d]thiazol‐2‐yl) benzamide] | 12.4 ± 0.97 | 11.8 ± 0.57 |  |  | 2.171 | 2.284 | 26.9 ± 0.97 |  | 

Second part, led by results:

IC50 (MCF7 cells; Homo sapiens, MCF7) [µM] | IC50 (MDA‐MB‐231 cells; Homo sapiens, MDA-MB-231) [µM] | IC50 (MCF7 cells) [µM] | IC50 (MDA‐MB‐231 cells) [µM] | SMILES | Selectivity MCF7 (MCF7 cells) | Selectivity MDA‐MB‐231 (MDA‐MB‐231 cells) | IC50 (L929 cells; L929, 24 h incubation) [µM] | Total p38α MAPK levels (p38 MAPKα) [ng/μg protein] | IC50 (L929 cells; 24 h incubation) [µM]
11.1 ± 0.23 | 16.7 ± 0.36 |  |  | COc1ccc(C(=O)NCc2nc3ccccc3s2)cc1 [Compound 17, N‐(Benzo[d]thiazol‐2‐ylmethyl)‐4‐methoxybenzamide] | 2.271 | 1.499 | 25.09 ± 0.18 | 6.411 ± 1.604 | 
11 ± 0.27 | 15.8 ± 0.75 |  |  | COc1ccc(C(=O)Nc2nc3ccccc3s2)cc1 [Compound 1, N‐(Benzo[d]thiazol‐2‐yl)‐4‐methoxybenzamide] | 2.227 | 1.549 | 24.5 ± 0.56 | 7.367 ± 1.291 | 
21.1 ± 0.46 | 15 ± 0.26 |  |  | O=C(NCc1nc2ccccc2s1)c1ccc(F)cc1 [Compound 12, N‐(Benzo[d]thiazol‐2‐ylmethyl)‐4‐fluorobenzamide] | 2.038 | 2.869 | 43 ± 0.56 |  | 
5.64 ± 0.34 | 13.5 ± 0.54 |  |  | O=C(NCc1nc2ccccc2s1)c1ccccc1 [Compound 10, N‐(Benzo[d]thiazol‐2‐ylmethyl) benzamide] | 7.238 | 3.019 | 40.82 ± 0.12 | 0.535 ± 0.079 | 
3.49 ± 0.32 | 6.02 ± 0.18 |  |  | O=C(Nc1nc2ccccc2s1)c1ccc(Cl)cc1 [Compound 9, N‐(Benzo[d]thiazol‐2‐yl)‐4‐chlorobenzamide] | 1.842 | 1.068 | 6.43 ± 0.05 | 0.166 ± 0.015 | 
11.2 ± 0.49 | 17 ± 0.67 |  |  | O=C(Nc1nc2ccccc2s1)c1ccc(F)cc1 [Compound 2, N‐(Benzo[d]thiazol‐2‐yl)‐4‐fluorobenzamide] | 1.884 | 1.239 | 21.02 ± 0.21 | 3.879 ± 0.868 | 
15.6 ± 0.65 | 10 ± 0.36 |  |  | O=C(NCc1nc2ccccc2s1)c1ccc(Cl)cc1 [Compound 11, N‐(Benzo[d]thiazol‐2‐ylmethyl)‐4‐chlorobenzamide] | 2.304 | 3.583 | 35.87 ± 0.23 |  | 
 |  | 12.3 ± 0.96 | 14.7 ± 0.63 | O=C(Cc1ccc(Cl)cc1)NCc1nc2ccccc2s1 [Compound 27, N‐(Benzo[d]thiazol‐2‐ylmethyl)‐2‐(4‐chlorophenyl) acetamide] | 2.666 | 2.243 |  |  | 32.9 ± 0.35
 |  | 12.9 ± 0.86 | 10 ± 0.43 | O=C(NCc1nc2ccccc2s1)c1ccc(C(F)(F)F)cc1 [Compound 13, N‐(Benzo[d]thiazol‐2‐ylmethyl)‐4‐(trifluoromethyl) benzamide] | 2.534 | 3.273 |  |  | 32.8 ± 0.43
12.9 ± 0.37 | 15.3 ± 0.32 |  |  | O=C(Nc1nc2ccccc2s1)c1ccc(Br)cc1 [Compound 5, N‐(Benzo[d]thiazol‐2‐yl)‐4‐bromobenzamide] | 2.399 | 2.033 | 31 ± 0.66 |  | 
14.1 ± 0.95 | 20.25 ± 0.19 |  |  | O=C(NCc1nc2ccccc2s1)c1ccc(Br)cc1 [Compound 16, N‐(Benzo[d]thiazol‐2‐ylmethyl)‐4‐bromobenzamide] | 2.536 | 1.766 | 35.8 ± 0.46 |  | 
